In US20240246942A1, “KINASE INHIBITORS FOR THE TREATMENT OF NEURODEGENERATIVE DISEASES” (priority 2020, published 2024):

Experiments:
Assay in all cases: biochemical
[1] = target: T1, panel of 374 wild-type kinases (Homo sapiens, UniProt O00141); conditions: read-out: % Enzyme Activity (relative to DMSO controls), kinase SGK1
T1 construct: purchased Reaction Biology Corporation
T1 sequence (O00141 1-431): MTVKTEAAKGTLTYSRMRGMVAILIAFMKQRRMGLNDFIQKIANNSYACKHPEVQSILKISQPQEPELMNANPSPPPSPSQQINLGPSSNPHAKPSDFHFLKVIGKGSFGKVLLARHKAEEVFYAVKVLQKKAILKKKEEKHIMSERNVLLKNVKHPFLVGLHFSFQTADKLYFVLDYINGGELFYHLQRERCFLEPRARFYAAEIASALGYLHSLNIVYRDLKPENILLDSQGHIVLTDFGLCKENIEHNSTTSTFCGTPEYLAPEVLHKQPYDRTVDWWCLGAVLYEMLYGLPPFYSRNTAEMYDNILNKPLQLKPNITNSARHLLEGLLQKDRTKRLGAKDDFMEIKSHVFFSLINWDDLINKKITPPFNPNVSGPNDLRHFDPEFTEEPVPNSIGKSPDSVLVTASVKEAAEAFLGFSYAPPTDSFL

[2] = target: T2, panel of 374 wild-type kinases (Homo sapiens, UniProt O15146); conditions: read-out: % Enzyme Activity (relative to DMSO controls), MUSK
T2 construct: purchased Reaction Biology Corporation
T2 sequence (O15146 24-869): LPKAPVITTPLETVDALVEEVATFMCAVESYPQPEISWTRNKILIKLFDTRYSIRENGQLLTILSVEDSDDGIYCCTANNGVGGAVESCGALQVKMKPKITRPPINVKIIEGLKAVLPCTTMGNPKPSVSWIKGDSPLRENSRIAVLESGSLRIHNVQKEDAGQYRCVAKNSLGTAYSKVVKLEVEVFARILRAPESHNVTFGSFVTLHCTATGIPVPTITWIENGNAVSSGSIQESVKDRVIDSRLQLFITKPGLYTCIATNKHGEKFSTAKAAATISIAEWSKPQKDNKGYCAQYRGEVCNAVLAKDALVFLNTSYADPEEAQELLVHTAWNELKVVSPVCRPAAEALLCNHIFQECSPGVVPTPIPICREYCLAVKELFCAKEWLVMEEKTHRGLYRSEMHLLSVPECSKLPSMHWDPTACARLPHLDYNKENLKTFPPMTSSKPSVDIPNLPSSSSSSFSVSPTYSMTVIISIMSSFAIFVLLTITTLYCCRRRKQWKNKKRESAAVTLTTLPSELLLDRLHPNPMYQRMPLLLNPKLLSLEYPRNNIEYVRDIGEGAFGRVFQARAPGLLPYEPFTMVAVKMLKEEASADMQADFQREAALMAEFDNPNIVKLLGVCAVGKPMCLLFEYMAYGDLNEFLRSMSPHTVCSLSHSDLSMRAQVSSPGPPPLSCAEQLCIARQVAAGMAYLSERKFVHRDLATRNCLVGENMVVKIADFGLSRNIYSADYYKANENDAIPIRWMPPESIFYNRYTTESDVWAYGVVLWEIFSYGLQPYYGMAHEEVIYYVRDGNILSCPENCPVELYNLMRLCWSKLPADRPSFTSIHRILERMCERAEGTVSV

[3] = target: T3, panel of 374 wild-type kinases (Homo sapiens, UniProt P06213); conditions: read-out: % Enzyme Activity (relative to DMSO controls), IR
T3 construct: purchased Reaction Biology Corporation
T3 sequence (P06213 28-1382): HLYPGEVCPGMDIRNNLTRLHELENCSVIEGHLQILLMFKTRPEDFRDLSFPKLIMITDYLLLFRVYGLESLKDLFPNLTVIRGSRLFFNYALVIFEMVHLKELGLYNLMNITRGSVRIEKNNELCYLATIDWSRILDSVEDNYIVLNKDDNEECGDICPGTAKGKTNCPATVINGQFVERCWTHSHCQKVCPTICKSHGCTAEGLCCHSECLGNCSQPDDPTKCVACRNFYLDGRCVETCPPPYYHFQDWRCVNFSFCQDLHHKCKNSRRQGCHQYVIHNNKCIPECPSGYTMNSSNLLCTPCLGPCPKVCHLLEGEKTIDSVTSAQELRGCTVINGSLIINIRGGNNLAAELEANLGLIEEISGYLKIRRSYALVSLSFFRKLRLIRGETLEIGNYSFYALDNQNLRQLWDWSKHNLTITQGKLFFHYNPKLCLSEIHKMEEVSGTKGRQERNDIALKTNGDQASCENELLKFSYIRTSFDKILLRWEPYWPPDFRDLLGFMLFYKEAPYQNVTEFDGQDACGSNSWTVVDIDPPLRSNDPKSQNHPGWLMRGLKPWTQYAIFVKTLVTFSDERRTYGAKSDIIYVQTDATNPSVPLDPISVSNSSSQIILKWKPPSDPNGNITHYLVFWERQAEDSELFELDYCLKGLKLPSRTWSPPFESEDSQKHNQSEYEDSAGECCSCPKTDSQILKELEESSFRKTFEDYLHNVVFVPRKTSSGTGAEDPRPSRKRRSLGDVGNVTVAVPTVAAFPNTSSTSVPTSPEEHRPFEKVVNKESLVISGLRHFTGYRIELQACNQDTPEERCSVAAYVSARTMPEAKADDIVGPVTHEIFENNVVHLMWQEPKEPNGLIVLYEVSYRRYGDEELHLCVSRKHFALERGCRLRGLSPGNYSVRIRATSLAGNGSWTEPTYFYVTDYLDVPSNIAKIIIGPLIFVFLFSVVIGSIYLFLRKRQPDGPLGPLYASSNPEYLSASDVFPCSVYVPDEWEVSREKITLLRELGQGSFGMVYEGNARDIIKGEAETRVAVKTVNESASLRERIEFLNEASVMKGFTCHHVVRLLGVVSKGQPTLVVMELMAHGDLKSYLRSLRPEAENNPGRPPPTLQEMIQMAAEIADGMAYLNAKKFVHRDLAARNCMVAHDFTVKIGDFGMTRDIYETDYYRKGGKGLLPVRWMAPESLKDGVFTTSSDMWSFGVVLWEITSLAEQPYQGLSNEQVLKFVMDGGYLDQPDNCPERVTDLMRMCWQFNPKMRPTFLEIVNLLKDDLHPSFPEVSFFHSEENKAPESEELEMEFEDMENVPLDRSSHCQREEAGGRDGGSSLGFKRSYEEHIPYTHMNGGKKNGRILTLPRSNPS

[4] = target: T4, panel of 374 wild-type kinases (Homo sapiens, UniProt P35916); conditions: read-out: % Enzyme Activity (relative to DMSO controls), FLT4/VEGFR3
T4 construct: purchased Reaction Biology Corporation
T4 sequence (P35916 25-1363): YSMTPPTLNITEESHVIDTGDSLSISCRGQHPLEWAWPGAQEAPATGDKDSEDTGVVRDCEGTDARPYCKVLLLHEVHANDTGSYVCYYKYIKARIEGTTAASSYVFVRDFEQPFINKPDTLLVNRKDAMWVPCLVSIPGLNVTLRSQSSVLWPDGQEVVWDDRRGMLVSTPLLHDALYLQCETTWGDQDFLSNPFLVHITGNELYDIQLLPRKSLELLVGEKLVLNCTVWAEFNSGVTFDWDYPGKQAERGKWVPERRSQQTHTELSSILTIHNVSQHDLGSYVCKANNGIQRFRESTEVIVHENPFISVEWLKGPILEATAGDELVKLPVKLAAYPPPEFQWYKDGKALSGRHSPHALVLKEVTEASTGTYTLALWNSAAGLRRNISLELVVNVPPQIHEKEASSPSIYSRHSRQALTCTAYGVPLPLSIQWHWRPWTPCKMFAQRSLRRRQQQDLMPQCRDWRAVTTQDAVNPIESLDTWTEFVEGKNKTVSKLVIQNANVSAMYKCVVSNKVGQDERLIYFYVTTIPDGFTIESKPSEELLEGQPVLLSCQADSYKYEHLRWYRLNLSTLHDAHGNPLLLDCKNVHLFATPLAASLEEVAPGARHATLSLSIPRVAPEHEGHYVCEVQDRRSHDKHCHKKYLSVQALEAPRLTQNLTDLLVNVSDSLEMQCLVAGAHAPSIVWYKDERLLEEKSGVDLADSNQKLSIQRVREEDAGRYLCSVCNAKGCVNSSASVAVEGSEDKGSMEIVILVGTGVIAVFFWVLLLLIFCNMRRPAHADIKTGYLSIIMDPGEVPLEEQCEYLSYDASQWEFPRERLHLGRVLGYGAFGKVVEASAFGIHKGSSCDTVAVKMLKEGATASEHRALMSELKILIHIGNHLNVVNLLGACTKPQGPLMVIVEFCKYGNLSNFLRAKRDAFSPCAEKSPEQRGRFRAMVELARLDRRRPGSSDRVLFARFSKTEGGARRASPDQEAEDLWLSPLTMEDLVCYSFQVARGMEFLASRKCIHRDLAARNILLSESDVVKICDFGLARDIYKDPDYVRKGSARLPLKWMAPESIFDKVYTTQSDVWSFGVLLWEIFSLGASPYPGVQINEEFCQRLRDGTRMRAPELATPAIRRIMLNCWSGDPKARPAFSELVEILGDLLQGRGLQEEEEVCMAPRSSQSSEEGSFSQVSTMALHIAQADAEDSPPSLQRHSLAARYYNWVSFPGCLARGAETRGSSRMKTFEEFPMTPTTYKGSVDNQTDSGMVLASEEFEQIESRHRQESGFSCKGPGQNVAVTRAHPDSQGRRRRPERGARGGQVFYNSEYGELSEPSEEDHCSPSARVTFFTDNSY

[5] = target: T5, panel of 374 wild-type kinases (Homo sapiens, UniProt P49336); conditions: read-out: % Enzyme Activity (relative to DMSO controls), CDK8/cyclin C
T5 construct: purchased Reaction Biology Corporation
T5 sequence (P49336 whole entry): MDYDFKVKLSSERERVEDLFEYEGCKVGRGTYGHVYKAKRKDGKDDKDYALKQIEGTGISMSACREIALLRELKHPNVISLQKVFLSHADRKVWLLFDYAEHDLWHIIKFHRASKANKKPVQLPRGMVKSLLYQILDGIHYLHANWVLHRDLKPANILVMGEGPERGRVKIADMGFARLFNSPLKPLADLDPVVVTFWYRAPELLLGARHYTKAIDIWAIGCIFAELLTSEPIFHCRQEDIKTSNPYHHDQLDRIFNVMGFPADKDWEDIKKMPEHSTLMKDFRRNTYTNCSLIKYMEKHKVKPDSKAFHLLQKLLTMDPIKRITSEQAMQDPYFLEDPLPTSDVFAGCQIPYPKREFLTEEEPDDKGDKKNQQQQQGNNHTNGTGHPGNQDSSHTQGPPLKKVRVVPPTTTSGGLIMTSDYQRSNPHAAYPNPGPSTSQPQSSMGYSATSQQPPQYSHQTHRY

[6] = target: T6, panel of 374 wild-type kinases (Homo sapiens, UniProt Q04771); conditions: read-out: % Enzyme Activity (relative to DMSO controls), ALK2/ACVR1
T6 construct: purchased Reaction Biology Corporation
T6 sequence (Q04771 21-509): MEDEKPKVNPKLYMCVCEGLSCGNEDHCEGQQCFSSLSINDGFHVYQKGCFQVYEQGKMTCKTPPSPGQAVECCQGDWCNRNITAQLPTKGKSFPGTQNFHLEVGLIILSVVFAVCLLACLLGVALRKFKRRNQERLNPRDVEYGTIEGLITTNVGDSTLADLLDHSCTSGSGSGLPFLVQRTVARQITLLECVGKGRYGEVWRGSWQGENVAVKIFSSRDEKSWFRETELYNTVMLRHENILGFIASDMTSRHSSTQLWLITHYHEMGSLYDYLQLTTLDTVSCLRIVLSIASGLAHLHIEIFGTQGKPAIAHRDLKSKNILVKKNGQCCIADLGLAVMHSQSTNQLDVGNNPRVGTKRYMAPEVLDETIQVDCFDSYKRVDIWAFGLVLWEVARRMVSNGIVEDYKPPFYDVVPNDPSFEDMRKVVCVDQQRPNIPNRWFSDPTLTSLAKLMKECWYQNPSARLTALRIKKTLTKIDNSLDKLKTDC

[7] = target: T7, panel of 374 wild-type kinases (Homo sapiens, UniProt Q13627); conditions: read-out: % Enzyme Activity (relative to DMSO controls), DYRK1/DYRK1A
T7 construct: purchased Reaction Biology Corporation

[8] = target: T8, panel of 374 wild-type kinases (Homo sapiens, UniProt Q99986); conditions: read-out: % Enzyme Activity (relative to DMSO controls), kinase VRK1
T8 construct: purchased Reaction Biology Corporation
T8 sequence (Q99986 1-396): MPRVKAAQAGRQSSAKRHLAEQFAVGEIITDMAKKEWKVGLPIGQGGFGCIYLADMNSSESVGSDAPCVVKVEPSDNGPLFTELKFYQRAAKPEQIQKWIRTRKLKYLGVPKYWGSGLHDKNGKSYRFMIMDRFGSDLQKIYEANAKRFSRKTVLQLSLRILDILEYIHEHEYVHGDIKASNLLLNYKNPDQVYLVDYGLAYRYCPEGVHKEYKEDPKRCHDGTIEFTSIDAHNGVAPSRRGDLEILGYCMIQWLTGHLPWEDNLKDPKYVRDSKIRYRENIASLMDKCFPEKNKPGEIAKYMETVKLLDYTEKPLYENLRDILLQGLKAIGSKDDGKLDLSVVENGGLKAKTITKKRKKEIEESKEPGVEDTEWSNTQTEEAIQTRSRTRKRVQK

[9] = target: T9, panel of 374 wild-type kinases (Homo sapiens, UniProt Q9UK32); conditions: read-out: % Enzyme Activity (relative to DMSO controls), kinase RSK4
T9 construct: purchased Reaction Biology Corporation
T9 sequence (Q9UK32 whole entry): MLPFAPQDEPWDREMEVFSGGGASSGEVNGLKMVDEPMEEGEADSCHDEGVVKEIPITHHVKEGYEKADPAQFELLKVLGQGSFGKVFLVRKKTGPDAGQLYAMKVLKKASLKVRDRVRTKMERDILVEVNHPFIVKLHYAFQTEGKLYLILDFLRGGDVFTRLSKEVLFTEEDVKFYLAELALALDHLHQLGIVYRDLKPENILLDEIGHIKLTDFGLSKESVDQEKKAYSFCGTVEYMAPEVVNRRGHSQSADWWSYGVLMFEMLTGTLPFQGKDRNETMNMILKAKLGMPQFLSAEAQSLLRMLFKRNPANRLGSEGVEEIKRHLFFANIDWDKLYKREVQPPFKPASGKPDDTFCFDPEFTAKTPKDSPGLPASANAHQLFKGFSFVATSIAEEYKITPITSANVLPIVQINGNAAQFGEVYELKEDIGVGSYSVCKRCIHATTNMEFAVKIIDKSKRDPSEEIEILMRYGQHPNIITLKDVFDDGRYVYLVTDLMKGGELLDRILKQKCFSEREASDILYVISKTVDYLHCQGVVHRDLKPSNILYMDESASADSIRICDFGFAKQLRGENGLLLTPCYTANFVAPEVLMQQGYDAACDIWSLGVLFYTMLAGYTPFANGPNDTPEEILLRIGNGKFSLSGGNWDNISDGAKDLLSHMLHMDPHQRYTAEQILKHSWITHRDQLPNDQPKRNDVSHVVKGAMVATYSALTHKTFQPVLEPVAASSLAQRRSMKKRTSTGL

Row | SMILES | remaining activity at 5 µM [1] [%] | remaining activity at 5 µM [2] [%] | remaining activity at 5 µM [3] [%] | remaining activity at 5 µM [4] [%] | remaining activity at 5 µM [5] [%] | remaining activity at 5 µM [6] [%] | remaining activity at 5 µM [7] [%] | remaining activity at 5 µM [8] [%] | remaining activity at 5 µM [9] [%] | remaining activity at 10 µM ([1]; 10 uM) [%] | remaining activity at 10 µM ([2]; 10 uM) [%] | remaining activity at 10 µM ([3]; 10 uM) [%] | remaining activity at 10 µM ([4]; 10 uM) [%] | remaining activity at 10 µM ([5]; 10 uM) [%] | remaining activity at 10 µM ([6]; 10 uM) [%] | remaining activity at 10 µM ([7]; 10 uM) [%] | remaining activity at 10 µM ([8]; 10 uM) [%] | remaining activity at 10 µM ([9]; 10 uM) [%]
1 | O=C(Nc1cnn(-c2csc(C(=O)NC3COC3)c2)c1)Nc1ccccc1Cl [Compound 17, 4-(4-(3-(2-chlorophenyl)ureido)-1H-pyrazol-1-yl)-N-(oxetan-3-yl)thiophene-2-carboxamide] | 93.7 | 94.5 | 98.4 | 93.8 | 101 | 105 | 86 | 109 | 107 | – | – | – | – | – | – | – | – | –
2 | Cc1sc(C(=O)NC2COC2)cc1-n1cc(NC(=O)Nc2c(F)cccc2Cl)cn1 [Compound 27, 4-(4-(3-(2-chloro-6-fluorophenyl)ureido)-1H-pyrazol-1-yl)-5-methyl-N-(oxetan-3-yl)thiophene-2-carboxamide] | – | – | – | – | – | – | – | – | – | 115 | 103 | 85.5 | 81.9 | 92.7 | 108 | 95.5 | 109 | 116
3 | O=C(Nc1cnn(-c2csc(C(=O)NC3COC3)c2)c1)Nc1c(F)cccc1Cl [Compound 25, 4-(4-(3-(2-chloro-6-fluorophenyl)ureido)-1H-pyrazol-1-yl)-N-(oxetan-3-yl)thiophene-2-carboxamide] | 95.4 | 86.8 | 102 | 86.6 | 99 | 95.7 | 75.1 | 91.9 | 92.2 | – | – | – | – | – | – | – | – | –
